Measurements as given in patent US11572590B2, “Methods for evaluating tumor cell spheroids using 3D microfluidic cell culture device” (Dana-Farber Cancer Institute, Inc., priority 2017, dated 2023).
Read-outs that look alike come from different tables or passages of the source.

Experiments:
[1] = target: off-target kinases (Homo sapiens, UniProt P06241); assay: SelectScreen Kinase Profiling, single point inhibition and IC50 for off-target kinases; format: biochemical; set-up: other: FYN A; 1000 μM; settings: FYN A, LanthaScreen Binding
off-target kinases, sequence (P06241 whole entry): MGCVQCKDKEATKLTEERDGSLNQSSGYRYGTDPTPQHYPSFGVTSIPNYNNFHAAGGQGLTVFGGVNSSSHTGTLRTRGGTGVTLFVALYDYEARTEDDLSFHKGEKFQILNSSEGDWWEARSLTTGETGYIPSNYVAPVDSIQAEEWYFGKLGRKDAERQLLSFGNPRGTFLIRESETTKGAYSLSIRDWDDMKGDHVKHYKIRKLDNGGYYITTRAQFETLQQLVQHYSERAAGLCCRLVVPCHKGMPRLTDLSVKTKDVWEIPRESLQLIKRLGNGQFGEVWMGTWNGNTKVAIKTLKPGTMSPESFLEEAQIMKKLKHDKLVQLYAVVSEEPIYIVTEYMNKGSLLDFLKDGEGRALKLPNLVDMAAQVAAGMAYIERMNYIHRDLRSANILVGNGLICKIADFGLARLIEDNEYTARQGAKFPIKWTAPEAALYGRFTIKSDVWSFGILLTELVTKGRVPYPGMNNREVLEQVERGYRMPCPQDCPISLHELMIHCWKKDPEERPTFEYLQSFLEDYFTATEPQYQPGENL
Description: Biochemical single point inhibition and IC50 concentrations for TBK1, IKKε (IKBKE), and off-target kinases were determined at ThermoFisher Scientific using SelectScreen Kinase Profiling Services (Madison, Wis., USA) (Tables S4A and S4B-1-7). To determine cellular potency, the human colorectal cancer carcinoma cell line HCT116 (ATCC, Manassas, Va.) was maintained in T175 flasks in complete RPMI medium; RPMI 1640 supplemented with 10% FBS, 1× Penicillin-Streptomycin solution and 1×MEM (non-essential amino acids). HCT116 cells were grown to 90-95% confluency in T175 flasks containing complete RPMI medium and transfected in bulk using Lipofectamine 2000 (Invitrogen, Carlsbad, Calif.) with 70 μg of ISG54-luciferase reporter plasmid (Elim Biopharmaceuticals Inc., Hayward, Calif.). The reporter plasmid contains a luciferase gene expression cassette under the transcriptional regulation of the promoter of the human interferon stimulated gene 54 (ISG54). […] The assay plates were incubated for 5 hours at 37° C., followed by addition of One-Glo luciferase firefly reagent (Promega, Madison, Wis.) at 1:1 volume/well and luminescence was measured in an EnVision Multilabel Plate Reader (PerkinElmer, Santa Clara, Calif.). The EC50 values were calculated from the fit of the dose-response curves to a four-parameter equation. […]

[2] = target: T1, TBK1 (Homo sapiens, UniProt Q9UHD2); assay: SelectScreen Kinase Profiling, IC50 for TBK1; format: biochemical; settings: ATP Km app, ZLYTE; for inhibition: TBK1
T1 sequence (Q9UHD2 1-729): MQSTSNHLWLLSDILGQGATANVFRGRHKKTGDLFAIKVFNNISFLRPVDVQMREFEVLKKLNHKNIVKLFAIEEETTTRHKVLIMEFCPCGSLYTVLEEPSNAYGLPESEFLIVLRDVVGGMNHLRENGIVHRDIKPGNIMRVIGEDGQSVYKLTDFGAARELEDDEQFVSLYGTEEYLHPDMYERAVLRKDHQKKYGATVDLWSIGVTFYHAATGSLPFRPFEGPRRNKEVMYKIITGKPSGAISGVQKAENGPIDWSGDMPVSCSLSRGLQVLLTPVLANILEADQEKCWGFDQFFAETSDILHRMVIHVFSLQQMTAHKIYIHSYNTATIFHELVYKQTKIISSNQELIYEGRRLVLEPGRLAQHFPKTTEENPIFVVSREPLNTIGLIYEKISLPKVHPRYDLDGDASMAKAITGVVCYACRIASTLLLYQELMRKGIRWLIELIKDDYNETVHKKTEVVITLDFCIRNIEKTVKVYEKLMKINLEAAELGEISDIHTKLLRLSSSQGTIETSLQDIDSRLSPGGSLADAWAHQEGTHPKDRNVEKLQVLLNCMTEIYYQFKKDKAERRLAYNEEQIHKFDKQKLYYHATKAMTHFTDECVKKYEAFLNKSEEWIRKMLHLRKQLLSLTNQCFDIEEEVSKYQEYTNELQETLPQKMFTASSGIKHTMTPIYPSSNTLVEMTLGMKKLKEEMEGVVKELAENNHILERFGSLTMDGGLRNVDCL
Description: Biochemical single point inhibition and IC50 concentrations for TBK1, IKKε (IKBKE), and off-target kinases were determined at ThermoFisher Scientific using SelectScreen Kinase Profiling Services (Madison, Wis., USA) (Tables S4A and S4B-1-7). To determine cellular potency, the human colorectal cancer carcinoma cell line HCT116 (ATCC, Manassas, Va.) was maintained in T175 flasks in complete RPMI medium; RPMI 1640 supplemented with 10% FBS, 1× Penicillin-Streptomycin solution and 1×MEM (non-essential amino acids). HCT116 cells were grown to 90-95% confluency in T175 flasks containing complete RPMI medium and transfected in bulk using Lipofectamine 2000 (Invitrogen, Carlsbad, Calif.) with 70 μg of ISG54-luciferase reporter plasmid (Elim Biopharmaceuticals Inc., Hayward, Calif.). The reporter plasmid contains a luciferase gene expression cassette under the transcriptional regulation of the promoter of the human interferon stimulated gene 54 (ISG54). Transfection of the cells was allowed to take place for 6 hours, after which the cells were harvested by treatment with 0.25% trypsin EDTA (Corning Inc., Corning, N.Y.). Trypsinized cells were added to 384-well poly-d-lysine treated black clear bottom tissue culture assay plates (Greiner Bio-One GmbH, Kremsmünster, Austria) at a density of 20,000 cells/well in 80 μL of complete RPMI medium and incubated overnight. After 16-18 hours post-transfection, the assay plates were washed with PBS (Corning Inc., Corning, N.Y.), followed by addition of 80 μL/well of serum-free RPMI 1640 medium containing 1× Penicillin-Streptomycin solution, 1×MEM and 350 nL of DMSO or titrations of Compound 1. Compound 1 titrations were generated by 1.5-fold dilution steps in two overlapping serial dilution series to generate a 40-point compound dose range. After incubation at 37° C. for 1 hour, the cells were stimulated with Poly(I:C) (InvivoGen, San Diego, Calif.) at a final concentration of 15 μg/mL in Optimem media (Life Technologies, Rockville, Md.). The assay plates were incubated for 5 hours at 37° C., followed by addition of One-Glo luciferase firefly reagent (Promega, Madison, Wis.) at 1:1 volume/well and luminescence was measured in an EnVision Multilabel Plate Reader (PerkinElmer, Santa Clara, Calif.). The EC50 values were calculated from the fit of the dose-response curves to a four-parameter equation. All EC50 values represent geometric mean values of a minimum of four determinations.

[3] = test system: Jurkat T cell leukemia cells; assay: IL-2 secretion by Jurkat cells on anti-CD3 coated plates; format: cell-based; settings: dose titration, 24 hours
Description: Freshly isolated human CD4+ and CD8+ T cells were obtained from AllCells (Alameda, Calif., USA). Cells were spun down and resuspended in serum free Xvivo15 media (Lonza Walkersville, Inc., Chicago, Ill., USA) supplemented with 5 ng/mL […] and incubated overnight at 37° C. Cells were plated on anti-CD3 coated plates (5 μg/mL OKT3, eBioscience, Dallas, Tex., USA, overnight) with 2 μg/mL anti-CD28 (eBioscience, Dallas, Tex., USA). Cells are treated in replicate plates with a dose-titration of Compound 1 for 24 hours for IL-2 and 96 hours for IFNγ. IL-2 and IFNγ in the supernatant were measured using single- or multi-plex immunoassay (Mesoscale Discovery, Rockville, Md., USA). Jurkat T cell leukemia cells (clone E61 obtained from ATCC) plated on anti-CD3 coated plates were treated with a dose titration of Compound 1 for 24 hours. IL-2 in the supernatant was measured as described above.

With N#Cc1cc(-c2ncnc(Nc3ccc(N4CCN(C5COC5)CC4)cc3)n2)ccc1OC1CCOCC1 [Compound 1, 5-(4-((4-(4-(oxetan-3-yl)piperazin-1-yl)phenyl)amino)-1,3,5-triazin-2-yl)-2-((tetrahydro-2H-pyran-4-yl)oxy)benzonitrile] the inhibition ([1]; read-out: % Inhibition 1) was 16%, the inhibition ([1]; read-out: % Inhibition 2) was 21% and the inhibition ([2]; read-out: % Inhibition 1) was 91%. It also gave an inhibition ([2]; read-out: % Inhibition 2) of 99%, an inhibition ([2]; read-out: % Inhibition Avg) of 95% and a Hillslope [2] of 1.12. For the same molecule, the IC50 [2] was 1.04 nM, the “fold selectivity (IKBKE)” value ([2]; IC50 relative to IKBKE IC50) was 0.2 fold and the “fold selectivity (TBK1)” value ([2]; IC50 relative to TBK1 IC50) was 1.0 fold. For the same molecule, the “secretion of IL-2 from Jurkat cells” value [3] was “enhanced secretion”.
